Experimental data taken from article PMC10892871 (Viruses, 2024).
Where “and” joins values, the source holds several entries; their conditions need not be identical. Identical values can stand only once.

System: Omicron BQ.1.1 SARS-CoV-2 variant
Format: cell-based

Structure (SMILES): O=c1nc(NO)ccn1[C@@H]1O[C@H](CO)[C@@H](O)[C@H]1O [EIDD-1931, reference compound]
- IC50 (read-out: IC50 vs. BQ.1.1 Mean ± SD): 1590 nM and 1600 nM
- IC90 (read-out: IC90 vs. BQ.1.1 Mean ± SD): 1800 ± 700 nM
